# Source: patent US10106534B2 (CELGENE QUANTICEL RESEARCH, INC., priority 2014, dated 2018)
# pIC50: −log10 of the molar value.
# Columns and labels:
# JMJD2C = JMJD2C (Homo sapiens (Human), UniProt Q9H3R0); test: In vitro enzyme inhibition assay for JMJD2C activity (TR-FRET); assay type: biochemical
# Summary of the method: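 Baculovirus JMJD2C (AA 2-372), 0.3 nM, with 300 nM biotin-H3K9me3 peptide and 2 μM α-ketoglutarate in HEPES pH 7.3 containing Fe(II) and ascorbate, 30 min at room temperature, 11-point dilutions. H3K9me2 product by TR-FRET (Eu-antibody/streptavidin-APC, 665/615 ratio); IC50 fitted.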
# [1] = tested on: KYSE-150 esophageal carcinoma cell line; test: In vitro cell-based assay: cellular proliferation via BrdU incorporation (ELISA); design: species or system human; settings: Homo sapiens, KYSE-150, 168 hours compound incubation
# Summary of the method: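 KYSE-150 cells (JMJD2C-amplified; SMAD4 and TP53 mutant), 2,000/well, were treated after overnight attachment with an 11-point series (100 μM to 2 nM) for 168 h. Proliferation was read by BrdU ELISA (2 h labelling, anti-BrdU-peroxidase, TMB, 450 nm) and IC50 fitted.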
# Sequence of JMJD2C (Q9H3R0 2-372): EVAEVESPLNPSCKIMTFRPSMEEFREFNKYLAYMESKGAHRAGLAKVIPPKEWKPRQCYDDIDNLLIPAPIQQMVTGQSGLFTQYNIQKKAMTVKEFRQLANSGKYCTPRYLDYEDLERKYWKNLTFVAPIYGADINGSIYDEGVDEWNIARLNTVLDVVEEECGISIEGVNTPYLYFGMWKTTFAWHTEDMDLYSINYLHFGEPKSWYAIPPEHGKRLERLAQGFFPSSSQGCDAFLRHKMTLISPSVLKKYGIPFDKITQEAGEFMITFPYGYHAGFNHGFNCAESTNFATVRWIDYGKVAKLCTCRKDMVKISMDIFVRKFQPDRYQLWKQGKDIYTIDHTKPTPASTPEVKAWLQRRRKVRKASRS
pIC50 (JMJD2C),pIC50 [1],Compound
6.00 to 7.00,< 5.00,"CN(c1ccc2c(c1)CCC[C@H]2CNc1cnccc1C(=O)O)c1ccn(C)c(=O)c1 [Example 155, 3-({[(1R)-6-[methyl(1-methyl-2-oxo-1,2-dihydropyridin-4-yl)amino]-1,2,3,4-tetrahydronaphthalen-1-yl]methyl}amino)pyridine-4-carboxylic acid]"
6.00 to 7.00,6.00 to 7.00,"CN(c1ccc(CO)cc1)c1ccc2c(c1)CCC[C@H]2CNc1cnccc1C(=O)O [Example 158, 3-({[(1R)-6-{[4-(hydroxymethyl)phenyl](methyl)amino}-1,2,3,4-tetrahydronaphthalen-1-yl]methyl}amino)pyridine-4-carboxylic acid]"
5.00 to 6.00,≥ 7.00,"CN(c1ccc(C2CC2)cc1)c1ccc2c(c1)CCC[C@H]2CNc1cnccc1C(=O)O [Example 161, 3-({[(1R)-6-[(4-cyclopropylphenyl)(methyl)amino]-1,2,3,4-tetrahydronaphthalen-1-yl]methyl}amino)pyridine-4-carboxylic acid]"
5.00 to 6.00,≥ 7.00,"COCCN(c1ccc(C2CC2)cc1)c1ccc2c(c1)CCC[C@H]2CNc1cnccc1C(=O)O [Example 163, 3-({[(1R)-6-[(4-cyclopropylphenyl)(2-methoxyethyl)amino]-1,2,3,4-tetrahydronaphthalen-1-yl]methyl}amino)pyridine-4-carboxylic acid]"
6.00 to 7.00,≥ 7.00,"CN(c1ccc(N2CCCC2)cc1)c1ccc2c(c1)CCC[C@H]2CNc1cnccc1C(=O)O [Example 167, 3-({[(1R)-6-{methyl[4-(pyrrolidin-1-yl)phenyl]amino}-1,2,3,4-tetrahydronaphthalen-1-yl]methyl}amino)pyridine-4-carboxylic acid]"
5.00 to 6.00,< 5.00,"Cc1cc(N(C)c2ccc3c(c2)CCC[C@H]3CNc2cnccc2C(=O)O)no1 [Example 171, 3-({[(1R)-6-[methyl(5-methyl-1,2-oxazol-3-yl)amino]-1,2,3,4-tetrahydronaphthalen-1-yl]methyl}amino)pyridine-4-carboxylic acid]"
6.00 to 7.00,6.00 to 7.00,"COc1ccccc1N(C)c1ccc2c(c1)CCC[C@H]2CNc1cnccc1C(=O)O [Example 172, 3-({[(1R)-6-[(2-methoxyphenyl)(methyl)amino]-1,2,3,4-tetrahydronaphthalen-1-yl]methyl}amino)pyridine-4-carboxylic acid]"
≥ 7.00,< 5.00,"CN(c1ccncc1)c1ccc2c(c1)CCC[C@H]2CNc1cnccc1C(=O)O [Example 173, 3-({[(1R)-6-[methyl(pyridin-4-yl)amino]-1,2,3,4-tetrahydronaphthalen-1-yl]methyl}amino)pyridine-4-carboxylic acid]"
5.00 to 6.00,≥ 7.00,"CN(c1ccc(C2=CCOCC2)cc1)c1ccc2c(c1)CCC[C@H]2CNc1cnccc1C(=O)O [Example 174, 3-({[(1R)-6-{[4-(3,6-dihydro-2H-pyran-4-yl)phenyl](methyl)amino}-1,2,3,4-tetrahydronaphthalen-1-yl]methyl}amino)pyridine-4-carboxylic acid]"
5.00 to 6.00,≥ 7.00,"CN(c1ccc(C2CCOCC2)cc1)c1ccc2c(c1)CCC[C@H]2CNc1cnccc1C(=O)O [Example 175, 3-({[(1R)-6-{methyl[4-(oxan-4-yl)phenyl]amino}-1,2,3,4-tetrahydronaphthalen-1-yl]methyl}amino)pyridine-4-carboxylic acid]"
6.00 to 7.00,≥ 7.00,"C=Cc1ccc(N(C)c2ccc3c(c2)OCC[C@H]3CNc2cnccc2C(=O)O)cc1 [Example 176, 3-({[(4R)-7-[(4-ethenylphenyl)(methyl)amino]-3,4-dihydro-2H-1-benzopyran-4-yl]methyl}amino)pyridine-4-carboxylic acid]"
6.00 to 7.00,≥ 7.00,"COc1ccc(N(C)c2ccc3c(c2)CCC[C@H]3CNc2cnccc2C(=O)O)cc1 [Example 177, 3-({[(1R)-6-[(4-methoxyphenyl)(methyl)amino]-1,2,3,4-tetrahydronaphthalen-1-yl]methyl}amino)pyridine-4-carboxylic acid]"
≥ 7.00,≥ 7.00,"COc1ccc(N(C)c2ccc3c(c2)OCC[C@H]3CNc2cnccc2C(=O)O)cc1 [Example 178, 3-({[(4R)-7-[(4-methoxyphenyl)(methyl)amino]-3,4-dihydro-2H-1-benzopyran-4-yl]methyl}amino)pyridine-4-carboxylic acid]"
6.00 to 7.00,≥ 7.00,"CN(c1ccc(N2CCCC2)cc1)c1ccc2c(c1)OCC[C@H]2CNc1cnccc1C(=O)O [Example 179, 3-({[(4R)-7-{methyl[4-(pyrrolidin-1-yl)phenyl]amino}-3,4-dihydro-2H-1-benzopyran-4-yl]methyl}amino)pyridine-4-carboxylic acid]"
6.00 to 7.00,≥ 7.00,"CN(c1ccc(N2CCC2)cc1)c1ccc2c(c1)CCC[C@H]2CNc1cnccc1C(=O)O [Example 180, 3-({[(1R)-6-{[4-(azetidin-1-yl)phenyl](methyl)amino}-1,2,3,4-tetrahydronaphthalen-1-yl]methyl}amino)pyridine-4-carboxylic acid]"
6.00 to 7.00,≥ 7.00,"CCOc1ccc(N(C)c2ccc3c(c2)OCC[C@H]3CNc2cnccc2C(=O)O)cc1 [Example 186, 3-({[(4R)-7-[(4-ethoxyphenyl)(methyl)amino]-3,4-dihydro-2H-1-benzopyran-4-yl]methyl}amino)pyridine-4-carboxylic acid]"
6.00 to 7.00,≥ 7.00,"CN(c1ccc(-n2cccn2)cc1)c1ccc2c(c1)CCC[C@H]2CNc1cnccc1C(=O)O [Example 188, 3-({[(1R)-6-{methyl[4-(1H-pyrazol-1-yl)phenyl]amino}-1,2,3,4-tetrahydronaphthalen-1-yl]methyl}amino)pyridine-4-carboxylic acid]"
6.00 to 7.00,6.00 to 7.00,"CN(c1ccc(-n2cccn2)cc1)c1ccc2c(c1)OCC[C@H]2CNc1cnccc1C(=O)O [Example 189, 3-({[(4R)-7-{methyl[4-(1H-pyrazol-1-yl)phenyl]amino}-3,4-dihydro-2H-1-benzopyran-4-yl]methyl}amino)pyridine-4-carboxylic acid]"
6.00 to 7.00,≥ 7.00,"CN(c1ccc(N2CC(F)(F)C2)cc1)c1ccc2c(c1)OCC[C@H]2CNc1cnccc1C(=O)O [Example 196, 3-({[(4R)-7-{[4-(3,3-difluoroazetidin-1-yl)phenyl](methyl)amino}-3,4-dihydro-2H-1-benzopyran-4-yl]methyl}amino)pyridine-4-carboxylic acid]"
6.00 to 7.00,≥ 7.00,"COCCOc1ccc(N(C)c2ccc3c(c2)CCC[C@H]3CNc2cnccc2C(=O)O)cc1 [Example 197, 3-({[(1R)-6-{[4-(2-methoxyethoxy)phenyl](methyl)amino}-1,2,3,4-tetrahydronaphthalen-1-yl]methyl}amino)pyridine-4-carboxylic acid]"
6.00 to 7.00,≥ 7.00,"CC(c1ccccc1)c1ccc2c(c1)OCC[C@H]2CNc1cnccc1C(=O)O (stereo partly drawn) [Example 198, 3-({[(4R)-7-(1-phenylethyl)-3,4-dihydro-2H-1-benzopyran-4-yl]methyl}amino)pyridine-4-carboxylic acid]"
6.00 to 7.00,≥ 7.00,"CC(C)c1ccc(N(C)c2ccc3c(c2)OCC[C@H]3CNc2cnccc2C(=O)O)nc1 [Example 199, 3-({[(4R)-7-{methyl[5-(propan-2-yl)pyridin-2-yl]amino}-3,4-dihydro-2H-1-benzopyran-4-yl]methyl}amino)pyridine-4-carboxylic acid]"
6.00 to 7.00,6.00 to 7.00,"CN(c1ccc(N2CC(O)C2)cc1)c1ccc2c(c1)CCC[C@H]2CNc1cnccc1C(=O)O [Example 200, 3-({[(1R)-6-{[4-(3-hydroxyazetidin-1-yl)phenyl](methyl)amino}-1,2,3,4-tetrahydronaphthalen-1-yl]methyl}amino)pyridine-4-carboxylic acid]"
6.00 to 7.00,≥ 7.00,"CN(c1ccc(C2=CCOCC2)cc1)c1ccc2c(c1)OCC[C@H]2CNc1cnccc1C(=O)O [Example 201, 3-({[(4R)-7-{[4-(3,6-dihydro-2H-pyran-4-yl)phenyl](methyl)amino}-3,4-dihydro-2H-1-benzopyran-4-yl]methyl}amino)pyridine-4-carboxylic acid]"
6.00 to 7.00,6.00 to 7.00,"O=C(O)c1ccncc1NC[C@@H]1CCOc2cc(C3(c4ccccc4)CC3)ccc21 [Example 203, 3-({[(4R)-7-(1-phenylcyclopropyl)-3,4-dihydro-2H-1-benzopyran-4-yl]methyl}amino)pyridine-4-carboxylic acid]"
≥ 7.00,< 5.00,"CN1CC=C(c2ccc(N(C)c3ccc4c(c3)OCC[C@H]4CNc3cnccc3C(=O)O)cc2)CC1 [Example 204, 3-({[(4R)-7-{methyl[4-(1-methyl-1,2,3,6-tetrahydropyridin-4-yl)phenyl]amino}-3,4-dihydro-2H-1-benzopyran-4-yl]methyl}amino)pyridine-4-carboxylic acid]"
≥ 7.00,< 5.00,"CN1CCC(c2ccc(N(C)c3ccc4c(c3)OCC[C@H]4CNc3cnccc3C(=O)O)cc2)CC1 [Example 205, 3-({[(4R)-7-{methyl[4-(1-methylpiperidin-4-yl)phenyl]amino}-3,4-dihydro-2H-1-benzopyran-4-yl]methyl}amino)pyridine-4-carboxylic acid]"
6.00 to 7.00,≥ 7.00,"Cc1ccc(N(C)c2ccc3c(c2)OCC[C@H]3CNc2cnccc2C(=O)O)cc1C [Example 206, 3-({[(4R)-7-[(3,4-dimethylphenyl)(methyl)amino]-3,4-dihydro-2H-1-benzopyran-4-yl]methyl}amino)pyridine-4-carboxylic acid]"
